Like-named read-outs stand apart in the source and are kept apart here. Values belong to the compound of their own block, whether it stands above or below them. Where no end group is shown, it is not given here.
Columns and labels:
[1] = test system: NPSR; details: cited from earlier work
[2] = test system: mouse vertical activity; details: at doses able to counteract the stimulatory effect of exogenously applied NPS; cited from earlier work
[3] = biological target: T1, mouse NPSR (Mus musculus, UniProt Q8BZP8); assay: Calcium mobilization in HEK293mNPSR cells, agonist mode; type: cell-based
T1 sequence (Q8BZP8 1-371): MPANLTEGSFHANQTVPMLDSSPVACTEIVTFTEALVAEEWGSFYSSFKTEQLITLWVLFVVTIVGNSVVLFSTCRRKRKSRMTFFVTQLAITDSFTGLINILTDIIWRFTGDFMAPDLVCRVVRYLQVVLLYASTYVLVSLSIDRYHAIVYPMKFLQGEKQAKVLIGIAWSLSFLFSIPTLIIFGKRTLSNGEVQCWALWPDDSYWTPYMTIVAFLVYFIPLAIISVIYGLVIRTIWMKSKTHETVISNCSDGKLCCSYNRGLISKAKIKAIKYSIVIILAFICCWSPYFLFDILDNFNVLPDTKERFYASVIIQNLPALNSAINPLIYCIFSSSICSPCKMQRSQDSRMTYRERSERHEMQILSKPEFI

Compound: [Ala^3]NPS
Pharmacological profile at NPSR ([1]; ref 17): partial agonist

Compound: O=C(NCc1ccc(F)cc1)N1CCN2C(=O)OC(c3ccccc3)(c3ccccc3)C2C1 (stereo not drawn) [SHA 68, 3-Oxo-1,1-diphenyl-tetrahydro-oxazolo[3,4-a]pyrazine-7-carboxylic acid 4-fluoro-benzylamide]
Pharmacological profile at NPSR ([1]; ref 18): pure antagonist
Effect per se on mouse vertical activity [2]: selective reduction of mouse vertical activity

Emax ([3]; read-out: Agonist Emax ± sem, SEM): 295 ± 22%
Compound: SFRNGVGTGMKKTSFQRAKS [NPS, Neuropeptide S]

Compound: [D-Ala^5]NPS
Pharmacological profile at NPSR ([1]; ref 15): partial agonist

Agonist effect at 10 μM (crc incomplete) ([3]; 10 μM, % over the baseline, HEK293mNPSR): 30%
Compound: [Trp^5]NPS (SFRNWVGTGMKKTSFQRAKS; Neuropeptide S; UniProt P0C0P6 70-89, looked up, variant G5W) [Compound 2]

Compound: [Aib^5]NPS
Pharmacological profile at NPSR ([1]; ref 15): partial agonists

Compound: [Ala^5]NPS (SFRNAVGTGMKKTSFQRAKS; Neuropeptide S; UniProt P0C0P6 70-89, looked up, variant G5A)
Pharmacological profile at NPSR ([1]; ref 6, 15): high potency NPSR full agonist
Pharmacological profile at NPSR ([1]; ref 15): full agonist
